Laboratory results reported in article PMC10814725, “In Vitro Anti-Inflammatory Study of Limonoids Isolated from Chisocheton Plants” (Current Issues in Molecular Biology, 2024).
Like-named read-outs stand apart in the source and are kept apart here.

Tests used:
in vitro = assay type: cell-based; conditions: mouse
Procedure: (§1) The viability of HEK-Blue^TM hTLR4, […], and THP-1 cells was evaluated using the Dojindo Cell Counting Kit-8 (CCK-8) according to the manufacturer’s instructions. The viability of HEK-Blue^TM hTLR4 and THP-1 cells was assessed under identical conditions to the corresponding assay treatments. HEK-Blue^TM hTLR4 cells (2 × 10^4 cells/well) were seeded in 96-well plates and serum-starved for 24 h at 37 °C in a 5% CO2 atmosphere. After incubation, the culture medium was aspirated, and the cells were washed with saline. High-glucose D-MEM supplemented with 0.1% FBS and 1% penicillin–streptomycin was added and pretreated with or without the 17 limonoids at a concentration of 20 µM for 1 h, followed by LPS addition at a concentration of 10 ng/mL. After 18 h of incubation, a 10% (v/v) CCK-8 solution was added to each well and incubated at 37 °C for 1 h, and cell viability was calculated.

[1] = test system: TLR4-dependent NF-kB activation in HEK-Blue hTLR4 cells; experiment: SEAP reporter gene assay, antagonist effect on LPS-stimulated TLR4-dependent NF-κB activation; assay type: cell-based, human; conditions: 20 µM, LPS 10 ng/mL, 18 h, vs. LPS stimulated-only group
Procedure: (§2) The SEAP Reporter Gene Assay was conducted as previously described. HEK-Blue^TM hTLR4 cells (2 × 10^4 cells/well) were seeded in 96-well plates and were serum-starved for 24 h at 37 °C in a 5% carbon dioxide atmosphere. After incubation, the culture medium was aspirated, and the cells were washed with saline. High-glucose D-MEM supplemented with 0.1% FBS and 1% penicillin-streptomycin was added and treated with or without the 17 limonoids at a concentration of 20 µM for 1 h, followed by LPS addition at a concentration of 10 ng/mL for the LPS-stimulated group. After incubation at 37 °C for 18 h, the supernatants were collected and PNPP in PBS solution (0.8 mM, 100 μL) was added, followed by 4 h of shading at 25 °C. The optical density (OD) of the samples was measured at 405 nm using a microplate reader (BioTek Cytation 5 Cell Imaging Multimode Reader, Agilent Technologies, Santa Clara, CA, USA).

[2] = test system: TNF-α, IL-6, IL-1β, and MCP-1; experiment: ELISA of pro-inflammatory markers overall (TNF-α, IL-6, IL-1β, MCP-1) in LPS-stimulated THP-1 cells; assay type: cell-based; conditions: Homo sapiens, read-out: Overall IC50 values for the evaluated pro-inflammatory markers
Procedure: The logarithmic growth phase of THP-1 cells was achieved by seeding in 96-well plates at a density of 5 × 10^4 cells/well and differentiated for 24 h in the presence of PMA (0.5 μM solution in medium). After 24 h of incubation, the culture medium was removed from the 96-well plate and the cells were washed with PBS. Fresh RPMI-1640 medium supplemented with 0.1% FBS and 1% Penicillin–Streptomycin was added to each well and incubated at 37 °C overnight. The cells were pretreated with 17 limonoids at the corresponding concentration for 1 h, followed by the addition of LPS (10 ng/mL) and then incubation at 37 °C for 18 h. Finally, 50 μL of each culture supernatant solution was taken to determine the concentrations of IL-6, MCP-1, and IL-1β using the corresponding commercially available human ELISA kits following the manufacturer’s instructions. The analyte concentration in the supernatant was measured in pg/mL, and the inhibition level was expressed as a fold change compared to the LPS (−) control group. To determine the IC50 value, the dose-response data were normalized to the LPS-stimulated-only group, and the percentage of inhibition was calculated using the following formula: % Inhibition=(Absorbance of LPS+ control−Absorbance of compound treatment with LPS)/(Absorbance of LPS+ control−Absorbance of LPS− control)×100
Furthermore, the % inhibition data were interpolated into linear equations to determine the IC50 values.

[3] = Cell viability by CCK-8, THP-1 cells; assay type: cell-based; conditions: human, PMA-differentiated THP-1 cells, 10 µM, 18 h
Procedure: as §1
The THP-1 cells at 5 × 10^4 cells/well were differentiated for 24 h in the presence of PMA (0.5 μM solution in medium). After 24 h of incubation, the culture medium was removed from the 96-well plate and the cells were washed with PBS. Fresh RPMI-1640 medium supplemented with 0.1% FBS and 1% penicillin–streptomycin was added to each well and incubated at 37 °C for overnight. The cells were pretreated with 17 limonoids at the corresponding concentration for 1 h followed by the addition of LPS (10 ng/mL) and incubated at 37 °C for 18 h. Furthermore, CCK-8 solution was added to each well with a final concentration was 10% (v/v) and incubated at 37 °C. After 1 h, the absorbance of each well was measured at […] by using a microplate reader (BioTek Cytation 5 Cell Imaging Multimode Reader). Cell viability was calculated using the following formula: % Cell viability=(Absorbance of sample−Absorbance of Background)/(Absorbance of control−Absorbance of Background)×100 where the absorbance of the sample is the absorbance of cells treated by the compound with or without LPS, the absorbance of the control is the absorbance of LPS (−)-treated cells, and the background absorbance is the absorbance of a well containing only the medium. The results were expressed as 100% cell viability.

[4] = test system: NF-κB activation in HEK-Blue hTLR4 cells; experiment: SEAP reporter gene assay, agonist effect on NF-κB activation (without LPS); assay type: cell-based, human; conditions: 20 µM, compared to LPS (−)-treated cells
Procedure: as §2

[5] = Cell viability by CCK-8, HEK-Blue hTLR4 cells; assay type: cell-based; conditions: human
Procedure: as §1

CC1(C)C(=O)C=CC2(C)C1=C(O)C(=O)C1(C)C2(O)C(O)CC2(C)C(c3ccoc3)CC3OC321 (stereo not shown) [Compound 17, pentandricine G]
viability at 5 µM (in vitro): 77.5 ± 10.2% | viability at 10 µM (in vitro): 72.2 ± 4.68% | viability at 20 µM (in vitro): 73.1 ± 2.02% | Inhibition of SEAP release (NF-κB activity inhibition) [1]: significantly inhibited SEAP release | IC50 [2]: < 20 µM | viability at 18 h, 10 µM ([3]; LPS 10 ng/mL, read-out: Viability Cell (%) THP-1 LPS-Induced (10 ng/mL)): > 99.9% | viability at 18 h, 10 µM ([3]; without LPS, read-out: Viability Cell (%) THP-1 Without LPS): 87.3 ± 4.18% | Agonist effect on NF-κB activation [4]: weak agonist effect | viability at 18 h, 20 µM ([5]; Viability Cell (%) HEK-Blue hTLR4 LPS-Induced (10 ng/mL)): 64.2 ± 9.05% | viability at 18 h, 20 µM ([5]; Viability Cell (%) HEK-Blue hTLR4 Without LPS): > 99.9%
